# “Also recorded” adds a separate entry of the source.
# Tests used:
# [1] = without ritonavir coadministration; cited from earlier work
# [2] = test system: CYP3A4; conditions: cited from earlier work
# [3] = test system: Caco-2; conditions: cited from earlier work
# [4] = Paxlovid PBPK model verification, nirmatrelvir predicted vs observed exposure; parameters: species or system human
# [5] = Clinical pharmacokinetics of nirmatrelvir in healthy volunteers; type: in vivo, human; conditions: for renal clearance in the presence and absence of ritonavir: with vs without ritonavir
# [6] = In vitro precipitation test of nirmatrelvir SDD formulation; type: physicochemical; conditions: Pfizer data on file
# [7] = test system: MDCK-LE; conditions: cited from earlier work
# [8] = Simcyp ritonavir first-order compound file; parameters: species or system human; conditions: PK and DDI
SMILES,half-life [1],"in vitro fm,CYP3A4 ([2]; formation rate of the major metabolites with selective inhibitors)",main metabolizing enzyme ([2]; in vitro reaction phenotyping data),Papp [3],deviation of predicted AUC and Cmax from the observed [4],"oral clearance (CLPO) ([5]; SDD 300 mg single dose without ritonavir, Dataset #1, geometric mean)",renal clearance in the presence and absence of ritonavir [5],renal clearance in the presence and absence of ritonavir ([5]; listed as nirmatrelvir),period remained in solution without precipitating [6],Papp [7],"predicted vs observed values, ritonavir model [8]"
"CC(C)(C)[C@H](NC(=O)C(F)(F)F)C(=O)N1C[C@H]2[C@@H]([C@H]1C(=O)N[C@H](C#N)C[C@@H]1CCNC1=O)C2(C)C [Nirmatrelvir, nirmatrelvir]",2 h,0.99,mainly metabolized by CYP3A4; also recorded: predominantly metabolized by CYP3A4,0.66–1.19 10^–6 cm/s,≤ 20%,28.36 L/h,did not change,remains the same,24 h,1.76 10^–6 cm/s,–
"CC(C)c1nc(CN(C)C(=O)N[C@H](C(=O)N[C@@H](Cc2ccccc2)C[C@H](O)[C@H](Cc2ccccc2)NC(=O)OCc2cncs2)C(C)C)cs1 [Ritonavir, ritonavir]",–,–,–,–,–,–,–,–,–,–,within twofold
